{"source": "patent US20080171716A1", "about": "“NUCLEIC ACID MODULATION OF TOLL-LIKE RECEPTOR-MEDIATED IMMUNE STIMULATION” (Protiva Biotherapeutics, Inc., priority 2006, published 2008)", "key": {"TLR9": {"target": "T1, TLR9 (Mus musculus, UniProt Q9EQU3)", "T1 construct": "endogenous in cells; host or cells: Flt3L-derived dendritic cells cultured from bone marrow of female Balb/C mice", "T1 sequence (Q9EQU3 26-1032)": "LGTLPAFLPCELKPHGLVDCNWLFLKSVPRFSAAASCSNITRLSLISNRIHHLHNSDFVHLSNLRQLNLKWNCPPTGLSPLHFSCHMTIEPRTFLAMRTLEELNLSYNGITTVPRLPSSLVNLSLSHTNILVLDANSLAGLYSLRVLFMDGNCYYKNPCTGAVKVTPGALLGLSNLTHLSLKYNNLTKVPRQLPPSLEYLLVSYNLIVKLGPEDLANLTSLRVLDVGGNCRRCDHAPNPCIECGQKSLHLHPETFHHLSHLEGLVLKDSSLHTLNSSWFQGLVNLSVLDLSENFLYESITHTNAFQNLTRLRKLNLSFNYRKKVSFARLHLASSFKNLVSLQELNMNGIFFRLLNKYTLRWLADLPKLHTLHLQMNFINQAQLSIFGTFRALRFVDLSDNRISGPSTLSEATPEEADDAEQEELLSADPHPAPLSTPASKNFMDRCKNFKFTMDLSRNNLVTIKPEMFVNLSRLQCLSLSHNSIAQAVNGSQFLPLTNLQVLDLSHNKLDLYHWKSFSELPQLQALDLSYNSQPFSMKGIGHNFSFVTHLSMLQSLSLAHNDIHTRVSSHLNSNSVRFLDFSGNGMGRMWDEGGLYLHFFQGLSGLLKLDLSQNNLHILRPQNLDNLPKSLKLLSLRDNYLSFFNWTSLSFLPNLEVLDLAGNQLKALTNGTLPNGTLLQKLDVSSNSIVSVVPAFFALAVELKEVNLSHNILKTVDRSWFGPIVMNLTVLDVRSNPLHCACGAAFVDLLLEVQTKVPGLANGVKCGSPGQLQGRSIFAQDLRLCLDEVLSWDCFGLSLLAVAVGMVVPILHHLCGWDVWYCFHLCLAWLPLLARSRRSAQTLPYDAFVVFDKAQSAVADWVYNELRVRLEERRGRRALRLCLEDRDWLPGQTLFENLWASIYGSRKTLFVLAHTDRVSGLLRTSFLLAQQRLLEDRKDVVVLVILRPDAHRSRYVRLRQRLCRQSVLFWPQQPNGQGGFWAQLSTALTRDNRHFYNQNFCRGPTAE", "test": "CpG ODN (TLR9 agonist)-induced IFN-α in murine Flt3L-derived dendritic cells", "assay_type": "cell-based", "settings": "murine Flt3L DC; 1:1 molar ratio", "protocol": "(§1) Lipid Encapsulation of RNA and ODN. RNA or ODN were encapsulated in liposomes by a process of spontaneous vesicle formation as described in Judge et al., supra, and Jeffs et al., Pharm. Res., 22:362-372 (2005).\n(§2) Flt3L-derived dendritic cells (DC) were generated as described in Gilliet et al., J. Exp. Med., 195:953-958 (2002), using 100 ng/ml murine Flt3-ligand (Peprotech) supplemented media. Femurs and tibiae of female Balb/C mice were isolated and rinsed in sterile PBS. The ends of bones were cut and marrow harvested in complete media (RPMI 1640, 10% heat inactivated FBS, 1% penicillin/streptomycin, 2 mM L-glutamine, 1 mM sodium pyruvate, 25 mM HEPES, 50 μM 2-mercaptoethanol). Bone marrow cells were passed through a 70 μm strainer and centrifuged at 1000 rpm for 7 min. and resuspended in complete media supplemented with 100 ng/ml murine Flt3L to 2×10^6 cells/ml. 2 ml of cells were seeded in 6-well plates and 1 ml fresh media was added every two to three days. On day 9 of culture, non-adherent cells were washed in complete media and plated into 96-well plates at concentrations ranging from 0.5 to 2.5×10^5 cells/well.\nLoxoribine (InvivoGen; San Diego, Calif.), polyIC (Sigma-Aldrich; St. Louis, Mo.), and formulated nucleic acids were diluted in PBS and added to either human PBMC or Flt3L DC cultures. Cells were incubated 24 h at 37° C. before supernatants were assayed for cytokines by ELISA.\nCytokine ELISA. All cytokines were quantified using sandwich ELISA kits according to the manufacturer's instructions. These were mouse and human IFN-α (PBL Biomedical; Piscataway, N.J.) and IL-6 (eBioscience; San Diego, Calif.)."}, "TLR7": {"target": "T2, TLR7 (Mus musculus, UniProt P58681)", "T2 sequence (P58681 27-1050)": "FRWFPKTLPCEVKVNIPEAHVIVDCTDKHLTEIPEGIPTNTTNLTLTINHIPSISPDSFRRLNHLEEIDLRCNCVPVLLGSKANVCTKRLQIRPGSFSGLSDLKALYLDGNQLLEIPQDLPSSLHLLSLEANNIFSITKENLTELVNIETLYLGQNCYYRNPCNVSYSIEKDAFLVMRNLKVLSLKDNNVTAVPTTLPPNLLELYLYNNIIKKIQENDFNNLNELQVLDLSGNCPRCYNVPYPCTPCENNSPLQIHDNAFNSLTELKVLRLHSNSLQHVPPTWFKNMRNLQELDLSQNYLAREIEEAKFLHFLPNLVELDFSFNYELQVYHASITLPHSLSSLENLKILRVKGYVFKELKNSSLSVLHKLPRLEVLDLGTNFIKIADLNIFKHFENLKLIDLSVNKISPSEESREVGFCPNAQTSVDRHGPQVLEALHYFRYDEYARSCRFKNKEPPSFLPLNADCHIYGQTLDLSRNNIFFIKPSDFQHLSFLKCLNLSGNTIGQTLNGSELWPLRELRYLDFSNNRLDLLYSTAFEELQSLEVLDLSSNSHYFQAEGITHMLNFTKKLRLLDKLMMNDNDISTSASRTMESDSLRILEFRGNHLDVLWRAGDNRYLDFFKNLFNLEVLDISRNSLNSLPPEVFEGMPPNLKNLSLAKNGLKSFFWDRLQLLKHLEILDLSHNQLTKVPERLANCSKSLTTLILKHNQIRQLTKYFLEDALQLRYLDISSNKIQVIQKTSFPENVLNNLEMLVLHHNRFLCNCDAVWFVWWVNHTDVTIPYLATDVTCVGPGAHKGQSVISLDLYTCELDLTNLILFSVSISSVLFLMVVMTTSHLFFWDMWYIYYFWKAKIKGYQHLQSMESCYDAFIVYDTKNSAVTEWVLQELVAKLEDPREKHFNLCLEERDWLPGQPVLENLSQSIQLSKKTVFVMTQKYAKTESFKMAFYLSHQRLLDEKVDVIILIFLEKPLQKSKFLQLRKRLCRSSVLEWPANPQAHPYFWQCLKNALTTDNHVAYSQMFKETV", "test": "Loxoribine-induced IFN-α/IL-6 production in murine Flt3L-derived dendritic cells", "assay_type": "cell-based", "set-up": "Femurs and tibiae of female Balb/C mice were isolated; endogenous in cells; host or cells: Flt3L-derived dendritic cells cultured from bone marrow of female Balb/C mice", "settings": "murine Flt3L DC; 30 μM Lox; 0.2 μM RNA; 24 h", "protocol": "as §1\nas §2, with “cells/well. […]” for “cells/well.”\nCytokine ELISA. All cytokines were quantified using sandwich ELISA kits according to the manufacturer's instructions. […]"}}, "data": [{"substance": "polyUmod21: 2′OMe-uridine homopolymer of 21 nucleotides in length (UUUUUUUUUUUUUUUUUUUUU; all 2'-O-methyl, backbone not given here)", "values": [{"measurement": "level of IFN-α induction by Type B ODN (1826) when co-formulated", "setting": "TLR9", "result": "no inhibitory effect"}, {"measurement": "level of IFN-α induction by Type C ODN (M362) when co-formulated", "setting": "TLR9", "result": "no inhibitory effect"}, {"measurement": "inhibition of Lox-mediated IFN-α induction", "setting": "TLR7", "result": "87+/−11%"}, {"measurement": "inhibition of Lox-mediated IL-6 induction", "setting": "TLR7", "result": "69+/−1%"}]}]}
